Drawing on ChEMBL document CHEMBL5465560, “Selectivity Literature for EUbOPEN Chemogenomic Library” (2024), this text covers % of control, % of inhibition and % binding for twelve molecules.

Molecules are shown by their SMILES.

Assay [1] deals with SRSF protein kinase 2 (Homo sapiens) (UniProt P78362). In words: Selectivity interaction (ProQinase) EUB0000171b SRPK2.
In assay [2] the target is Mitogen-activated protein kinase 14 (Homo sapiens, UniProt Q16539). In words: Selectivity interaction (KinomeScan (DiscoverX)) EUB0001079a MAPK14. The following applies: at 1 µM.
Assay [3] concerns the target Ribosomal protein S6 kinase alpha-3 (Homo sapiens, UniProt P51812). The experiment in a line: Selectivity interaction (KinomeScan (DiscoverX)) EUB0001079a RPS6KA3. The note with it: at 1 µM.
Assay [4] concerns the target 5'-AMP-activated protein kinase catalytic subunit alpha-2 (Homo sapiens) (UniProt P54646). In words: Selectivity interaction (KinomeScan (DiscoverX)) EUB0000092b PRKAA2. The following applies: at 10 µM.
The target of assay [5] is Casein kinase I isoform delta (Homo sapiens, UniProt P48730). The experiment in a line: Selectivity interaction (KinomeScan (DiscoverX)) EUB0000655a CSNK1D. The following applies: at 10 µM.
In assay [6] the target is T1, Interleukin-1 receptor-associated kinase 4 (Homo sapiens) (UniProt Q9NWZ3).
T1 sequence (whole entry): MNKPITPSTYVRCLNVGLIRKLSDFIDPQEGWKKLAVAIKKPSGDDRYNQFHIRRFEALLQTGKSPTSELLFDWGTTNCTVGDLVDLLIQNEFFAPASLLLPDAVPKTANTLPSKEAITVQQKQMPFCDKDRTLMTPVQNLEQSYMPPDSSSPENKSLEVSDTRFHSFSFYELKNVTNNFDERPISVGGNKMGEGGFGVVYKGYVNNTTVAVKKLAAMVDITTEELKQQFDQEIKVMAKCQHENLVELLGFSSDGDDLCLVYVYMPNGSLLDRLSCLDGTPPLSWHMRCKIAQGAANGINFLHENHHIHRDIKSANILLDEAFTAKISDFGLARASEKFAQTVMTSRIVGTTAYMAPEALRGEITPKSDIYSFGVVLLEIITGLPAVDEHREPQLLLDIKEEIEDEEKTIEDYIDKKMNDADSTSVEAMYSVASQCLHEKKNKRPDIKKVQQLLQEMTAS
The experiment in a line: Selectivity interaction (KinomeScan (DiscoverX)) EUB0000695a IRAK4. The note with it: at 100 nM.

In assay [7] the target is SRSF protein kinase 3 (Homo sapiens) (UniProt Q9UPE1). In words: Selectivity interaction (KinomeScan (DiscoverX)) EUB0000695a SRPK3. The following applies: at 100 nM.
Assay [8] addresses T2, Serine/threonine-protein kinase TAO1 (Homo sapiens) (UniProt Q7L7X3).
T2 sequence (whole entry): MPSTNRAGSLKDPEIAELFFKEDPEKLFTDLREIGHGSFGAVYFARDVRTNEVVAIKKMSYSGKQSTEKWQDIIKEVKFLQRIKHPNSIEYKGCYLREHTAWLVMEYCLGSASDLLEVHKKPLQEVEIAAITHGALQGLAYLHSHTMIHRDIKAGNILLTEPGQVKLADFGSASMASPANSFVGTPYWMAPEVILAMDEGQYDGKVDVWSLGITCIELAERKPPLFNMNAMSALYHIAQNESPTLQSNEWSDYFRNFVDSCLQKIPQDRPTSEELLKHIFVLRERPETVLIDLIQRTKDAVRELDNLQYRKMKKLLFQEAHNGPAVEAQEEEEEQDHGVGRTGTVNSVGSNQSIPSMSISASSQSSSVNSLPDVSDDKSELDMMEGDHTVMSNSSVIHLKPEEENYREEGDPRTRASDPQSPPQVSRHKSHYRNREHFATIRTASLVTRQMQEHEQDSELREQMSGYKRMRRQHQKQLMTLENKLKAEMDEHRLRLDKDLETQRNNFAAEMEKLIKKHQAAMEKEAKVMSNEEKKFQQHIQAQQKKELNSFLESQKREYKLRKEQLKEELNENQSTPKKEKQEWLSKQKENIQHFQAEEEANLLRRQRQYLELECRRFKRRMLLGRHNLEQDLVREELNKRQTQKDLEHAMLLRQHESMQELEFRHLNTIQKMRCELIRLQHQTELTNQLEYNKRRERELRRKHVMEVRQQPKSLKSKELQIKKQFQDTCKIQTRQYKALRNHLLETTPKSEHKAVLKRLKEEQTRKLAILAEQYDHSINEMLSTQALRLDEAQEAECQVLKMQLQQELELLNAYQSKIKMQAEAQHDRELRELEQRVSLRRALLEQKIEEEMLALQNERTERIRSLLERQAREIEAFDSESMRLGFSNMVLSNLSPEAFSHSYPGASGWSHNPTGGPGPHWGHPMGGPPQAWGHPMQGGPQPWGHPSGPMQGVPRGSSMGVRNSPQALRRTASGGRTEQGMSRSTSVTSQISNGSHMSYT
In words: Selectivity interaction (LanthaScreen Eu Kinase Binding Assay) EUB0001632a TAOK1. The following applies: at 10 µM. On the technique in general: TR-FRET usually uses a lanthanide donor and a delayed reading to cut background.

Assay [9] concerns the target Protein kinase C eta type (Homo sapiens) (UniProt P24723). The experiment in a line: Selectivity interaction (SelectScreen profiling (Invitrogen)) EUB0000607a PRKCH. The following applies: at 2 µM.
The target in assay [10] is Serine/threonine-protein kinase pim-1 (Homo sapiens, UniProt P11309). In words: Selectivity interaction (Kinase panel (Invitrogen)) EUB0000639a PIM1. The following applies: at 200 nM.
Assay [11] deals with Serine/threonine-protein kinase 33 (Homo sapiens) (UniProt Q9BYT3). The experiment in a line: Selectivity interaction (KinomeScan (DiscoverX)) EUB0000229b STK33. The note with it: at 10 µM.
Assay [12] deals with Tyrosine-protein kinase Yes (Homo sapiens) (UniProt P07947). In words: Selectivity interaction (KinomeScan (DiscoverX)) EUB0000595a YES1. The note with it: at 10 µM.
The nature of assay [13]: Selectivity interaction (KinomeScan (DiscoverX)) EUB0001619a PKNB. The note with it: at 1 µM.
Assay [14] concerns the target T3, Cyclin-dependent kinase-like 2 (Homo sapiens) (UniProt Q92772).
T3 sequence (whole entry): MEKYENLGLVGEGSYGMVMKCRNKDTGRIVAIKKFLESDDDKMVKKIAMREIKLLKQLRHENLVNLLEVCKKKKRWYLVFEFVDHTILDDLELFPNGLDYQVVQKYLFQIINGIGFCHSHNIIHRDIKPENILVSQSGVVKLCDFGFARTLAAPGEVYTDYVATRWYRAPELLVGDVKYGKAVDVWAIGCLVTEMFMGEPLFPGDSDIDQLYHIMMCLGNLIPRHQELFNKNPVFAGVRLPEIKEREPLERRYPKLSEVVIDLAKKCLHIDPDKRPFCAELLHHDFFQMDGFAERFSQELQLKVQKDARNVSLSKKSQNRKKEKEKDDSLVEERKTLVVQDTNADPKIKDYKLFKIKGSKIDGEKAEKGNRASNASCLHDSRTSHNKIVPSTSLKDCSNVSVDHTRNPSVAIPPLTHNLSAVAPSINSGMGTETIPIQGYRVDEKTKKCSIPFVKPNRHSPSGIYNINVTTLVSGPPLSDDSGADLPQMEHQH
The experiment in a line: Selectivity interaction (KinomeScan (DiscoverX)) EUB0000618a CDKL2. The note with it: at 10 µM.

Chain of SRSF protein kinase 2 (Homo sapiens) (P78362 whole entry, looked up): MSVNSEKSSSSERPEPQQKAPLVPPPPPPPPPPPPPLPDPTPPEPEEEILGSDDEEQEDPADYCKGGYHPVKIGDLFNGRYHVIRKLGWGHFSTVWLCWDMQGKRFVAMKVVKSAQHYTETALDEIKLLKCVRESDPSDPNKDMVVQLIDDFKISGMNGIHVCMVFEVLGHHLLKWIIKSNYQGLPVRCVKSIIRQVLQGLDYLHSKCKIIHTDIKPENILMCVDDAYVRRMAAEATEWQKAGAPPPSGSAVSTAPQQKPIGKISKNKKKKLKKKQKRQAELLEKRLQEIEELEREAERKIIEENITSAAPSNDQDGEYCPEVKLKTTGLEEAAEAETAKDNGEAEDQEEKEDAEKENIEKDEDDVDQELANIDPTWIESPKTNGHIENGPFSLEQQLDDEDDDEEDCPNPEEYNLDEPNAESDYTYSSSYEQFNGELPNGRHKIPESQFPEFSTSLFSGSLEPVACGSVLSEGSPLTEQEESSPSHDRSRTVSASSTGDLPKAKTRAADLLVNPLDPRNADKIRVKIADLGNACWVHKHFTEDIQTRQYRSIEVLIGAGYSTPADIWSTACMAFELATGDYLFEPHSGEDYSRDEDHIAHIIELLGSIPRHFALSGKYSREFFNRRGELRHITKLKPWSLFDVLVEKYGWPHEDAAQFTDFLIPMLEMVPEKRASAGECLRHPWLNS
Chain of Casein kinase I isoform delta (P48730 whole entry, looked up, canonical isoform): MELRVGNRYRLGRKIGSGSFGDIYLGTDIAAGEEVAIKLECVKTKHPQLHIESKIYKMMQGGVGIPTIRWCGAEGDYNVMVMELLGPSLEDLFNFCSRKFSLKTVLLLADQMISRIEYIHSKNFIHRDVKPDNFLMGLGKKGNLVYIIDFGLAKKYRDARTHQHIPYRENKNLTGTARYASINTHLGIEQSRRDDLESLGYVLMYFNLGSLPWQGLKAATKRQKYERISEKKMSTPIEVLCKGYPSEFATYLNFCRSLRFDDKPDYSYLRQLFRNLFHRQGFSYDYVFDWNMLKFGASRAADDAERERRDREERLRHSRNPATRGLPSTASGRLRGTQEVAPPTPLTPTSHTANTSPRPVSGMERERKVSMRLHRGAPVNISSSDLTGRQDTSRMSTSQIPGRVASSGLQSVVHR
Chain of Serine/threonine-protein kinase 33 (Homo sapiens) (Q9BYT3 whole entry, looked up): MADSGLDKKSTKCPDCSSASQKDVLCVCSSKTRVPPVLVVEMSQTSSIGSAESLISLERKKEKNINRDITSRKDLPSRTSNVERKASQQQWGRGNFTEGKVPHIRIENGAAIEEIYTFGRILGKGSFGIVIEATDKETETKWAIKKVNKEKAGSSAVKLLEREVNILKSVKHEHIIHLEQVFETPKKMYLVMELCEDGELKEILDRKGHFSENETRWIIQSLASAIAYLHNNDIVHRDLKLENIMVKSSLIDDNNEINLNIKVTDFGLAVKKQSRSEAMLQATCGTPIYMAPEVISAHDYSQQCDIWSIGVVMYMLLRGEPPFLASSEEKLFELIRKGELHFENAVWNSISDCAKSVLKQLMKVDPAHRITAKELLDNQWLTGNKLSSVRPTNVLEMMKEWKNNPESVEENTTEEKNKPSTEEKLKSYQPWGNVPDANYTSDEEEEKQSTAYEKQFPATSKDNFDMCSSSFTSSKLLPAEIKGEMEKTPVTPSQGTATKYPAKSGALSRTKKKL
Chain of Ribosomal protein S6 kinase alpha-3 (P51812 whole entry): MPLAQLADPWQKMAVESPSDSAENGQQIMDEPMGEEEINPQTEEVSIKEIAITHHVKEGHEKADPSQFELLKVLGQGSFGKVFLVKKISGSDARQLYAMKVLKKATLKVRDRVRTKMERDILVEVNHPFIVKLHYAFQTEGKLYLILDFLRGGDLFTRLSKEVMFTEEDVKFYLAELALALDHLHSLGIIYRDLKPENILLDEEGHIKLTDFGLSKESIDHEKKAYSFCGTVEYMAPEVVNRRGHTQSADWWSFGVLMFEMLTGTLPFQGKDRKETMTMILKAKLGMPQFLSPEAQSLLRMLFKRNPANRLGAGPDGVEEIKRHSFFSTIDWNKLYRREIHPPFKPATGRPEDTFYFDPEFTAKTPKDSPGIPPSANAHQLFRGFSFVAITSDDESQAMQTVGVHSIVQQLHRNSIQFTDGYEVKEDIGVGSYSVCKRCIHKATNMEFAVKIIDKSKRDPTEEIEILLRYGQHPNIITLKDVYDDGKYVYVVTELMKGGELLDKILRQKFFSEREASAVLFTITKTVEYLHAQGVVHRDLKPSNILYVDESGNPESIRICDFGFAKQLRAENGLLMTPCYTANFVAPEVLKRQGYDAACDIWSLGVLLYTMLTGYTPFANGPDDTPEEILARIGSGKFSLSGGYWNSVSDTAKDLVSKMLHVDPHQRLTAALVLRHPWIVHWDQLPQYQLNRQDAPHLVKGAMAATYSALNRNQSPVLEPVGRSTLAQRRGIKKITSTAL
Chain of 5'-AMP-activated protein kinase catalytic subunit alpha-2 (Homo sapiens) (P54646 whole entry, looked up, canonical isoform): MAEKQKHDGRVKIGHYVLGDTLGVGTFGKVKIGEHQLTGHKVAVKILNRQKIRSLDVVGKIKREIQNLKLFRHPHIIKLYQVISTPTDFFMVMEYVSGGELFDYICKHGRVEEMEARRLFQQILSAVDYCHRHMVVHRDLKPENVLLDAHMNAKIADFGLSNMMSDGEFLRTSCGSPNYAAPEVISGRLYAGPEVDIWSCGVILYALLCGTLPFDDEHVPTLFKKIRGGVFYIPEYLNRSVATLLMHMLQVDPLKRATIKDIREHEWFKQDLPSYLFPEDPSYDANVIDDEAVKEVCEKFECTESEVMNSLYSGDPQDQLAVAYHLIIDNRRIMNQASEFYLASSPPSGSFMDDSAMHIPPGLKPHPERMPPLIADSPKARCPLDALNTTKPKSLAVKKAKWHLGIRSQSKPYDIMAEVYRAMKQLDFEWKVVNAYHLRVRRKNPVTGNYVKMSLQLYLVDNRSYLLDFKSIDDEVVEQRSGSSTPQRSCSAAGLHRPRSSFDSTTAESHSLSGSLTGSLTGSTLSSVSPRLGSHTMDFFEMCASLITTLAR
Chain of SRSF protein kinase 3 (Homo sapiens) (Q9UPE1 whole entry): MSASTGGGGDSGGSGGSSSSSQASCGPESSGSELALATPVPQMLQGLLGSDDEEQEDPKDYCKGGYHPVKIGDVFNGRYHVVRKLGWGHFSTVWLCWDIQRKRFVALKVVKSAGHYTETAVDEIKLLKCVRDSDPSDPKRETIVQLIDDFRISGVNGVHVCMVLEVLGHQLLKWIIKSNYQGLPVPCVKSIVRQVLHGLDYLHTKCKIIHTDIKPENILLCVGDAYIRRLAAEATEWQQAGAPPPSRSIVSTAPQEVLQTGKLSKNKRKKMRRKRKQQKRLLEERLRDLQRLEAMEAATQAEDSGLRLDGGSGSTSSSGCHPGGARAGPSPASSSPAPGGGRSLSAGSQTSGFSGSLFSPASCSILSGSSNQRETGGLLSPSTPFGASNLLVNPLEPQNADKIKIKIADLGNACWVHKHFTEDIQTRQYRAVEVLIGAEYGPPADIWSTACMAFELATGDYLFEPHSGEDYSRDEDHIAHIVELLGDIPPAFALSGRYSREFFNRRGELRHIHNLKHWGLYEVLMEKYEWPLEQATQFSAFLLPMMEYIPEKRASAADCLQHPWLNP
Chain of Mitogen-activated protein kinase 14 (Q16539 whole entry): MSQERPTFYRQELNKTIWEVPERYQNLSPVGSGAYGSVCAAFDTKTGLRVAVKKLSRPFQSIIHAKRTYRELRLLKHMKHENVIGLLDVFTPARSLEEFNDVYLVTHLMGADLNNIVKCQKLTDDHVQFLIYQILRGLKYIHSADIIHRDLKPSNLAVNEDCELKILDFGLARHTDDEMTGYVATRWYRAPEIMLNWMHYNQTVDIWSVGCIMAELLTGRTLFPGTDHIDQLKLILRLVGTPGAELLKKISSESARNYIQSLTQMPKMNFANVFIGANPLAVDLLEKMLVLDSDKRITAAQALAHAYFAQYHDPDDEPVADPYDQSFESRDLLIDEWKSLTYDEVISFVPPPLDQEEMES
Chain of Tyrosine-protein kinase Yes (Homo sapiens) (P07947 2-543 limits assumed): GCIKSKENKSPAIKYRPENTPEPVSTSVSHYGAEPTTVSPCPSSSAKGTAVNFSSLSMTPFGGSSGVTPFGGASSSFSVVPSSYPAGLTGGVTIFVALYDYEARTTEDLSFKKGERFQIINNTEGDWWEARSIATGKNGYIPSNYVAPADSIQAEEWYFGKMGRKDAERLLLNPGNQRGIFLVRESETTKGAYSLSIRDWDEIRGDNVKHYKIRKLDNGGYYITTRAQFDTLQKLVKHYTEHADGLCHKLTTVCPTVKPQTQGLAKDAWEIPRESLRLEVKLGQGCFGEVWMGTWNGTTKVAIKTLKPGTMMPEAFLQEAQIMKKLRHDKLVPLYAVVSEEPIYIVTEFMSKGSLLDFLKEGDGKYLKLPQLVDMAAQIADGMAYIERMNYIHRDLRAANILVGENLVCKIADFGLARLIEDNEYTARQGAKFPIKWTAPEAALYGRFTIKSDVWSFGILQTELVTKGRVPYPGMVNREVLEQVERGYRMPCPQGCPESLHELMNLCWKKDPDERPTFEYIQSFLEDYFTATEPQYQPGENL
Chain of Serine/threonine-protein kinase pim-1 (P11309 whole entry, looked up): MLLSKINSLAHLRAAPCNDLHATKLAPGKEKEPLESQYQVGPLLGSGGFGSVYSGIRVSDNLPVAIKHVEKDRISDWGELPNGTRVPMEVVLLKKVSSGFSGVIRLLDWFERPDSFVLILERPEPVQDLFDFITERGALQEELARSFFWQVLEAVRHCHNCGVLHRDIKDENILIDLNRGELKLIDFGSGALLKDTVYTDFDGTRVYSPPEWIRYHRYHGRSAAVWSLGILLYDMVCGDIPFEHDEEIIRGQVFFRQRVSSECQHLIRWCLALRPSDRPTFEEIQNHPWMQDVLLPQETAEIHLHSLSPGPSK

In the case of `C=CC(=O)Nc1cccc(C(=O)Nc2ccc(Nc3cc(-c4[nH]c(SC)nc4C)ccn3)cc2)c1`, the % of control turned out to be 82% in assay [1] (at 1 µM) and 75% in assay [1] (at 5 µM). As for `Nc1cnc(N2CCc3cc(S(=O)(=O)Nc4c(F)cc(Cl)cc4F)cc(N4CCCC4=O)c32)nc1` [TP-020n], the % of control in assay [2] and in [3] was 100% throughout. As to `CCC(=O)N1CCN(c2ccc(-n3c(=O)ccc4cnc5ccc(-c6cnc7ccccc7c6)cc5c43)cc2C(F)(F)F)CC1`, the % of control in assay [4] is 74%. For `CN(C)CCOc1ccc(-c2nc(-c3ccncc3)c(-c3ccc4c(c3)CC/C4=N\O)[nH]2)cc1`, the % of control in [5] turned out to be 4%.

Take `Cc1cc(F)c(C(=O)Nc2cccc(-c3nncn3C(C)C)n2)cc1-n1cnc(C2CC2)c1`: the % of control in assay [6] stood at 85%; in assay [7], 100%. In assay [8], `Cn1cc(-n2cnc3c(NCc4nc5cc(Cl)c(Cl)cc5[nH]4)nc(N4CCOCC4)nc32)cn1` yielded a % of inhibition of 31.8%. In turn, `CNC(=O)Nc1ccc(-c2nc(N3CC4CCC(C3)O4)c3cnn(C4CCC5(CC4)OCCO5)c3n2)cc1` yielded a % of inhibition in assay [9] of 14%.

As for `CC[C@@H]1[C@H](F)C(=O)N[C@@H]1COc1nccc2cc(C(N)=O)c(OC)cc12` [ZIMLOVISERTIB], in assay [10], the % of inhibition turned out to be 12.3%.

In [11], `COc1cc(N(C)c2ccnc3ccc(C(F)(F)F)cc23)cc(OC)c1OC` gave a % binding of 92%. With `COCC(=O)NC/C=C/c1ccc2ncnc(Nc3ccc(Oc4ccc(C)nc4)c(C)c3)c2c1` [CP-724714], the % of control in [12] was 65%. Consider `N#Cc1cccc(-c2c[nH]c3ncnc(N4CCOCC4)c23)c1`, for which, in assay [13], the % of control worked out at 47%.

Consider `O[C@H]1CC[C@H](Nc2ncc3nc(Nc4c(F)cc(F)cc4F)n([C@H]4CCOC4)c3n2)CC1`, for which the % of control in [14] came out at 100%.
